The text below walks through data of article PMC10949195, “Exponential Combination of a and e/g Intracellular Peptide Libraries Identifies a Selective ATF3 Inhibitor” (ACS Chemical Biology, 2024).

Assay [1] concerns M2 macrophages differentiated from the human THP-1 monocytic cell line. Kind of assay: THP-1 polarization assay and CCL-4 ELISA. It counts as cell-based. Conditions: M2 macrophages from THP-1 (IL-4 polarized); 20 μM peptide with NLS-TAT appendage; 48 h; versus untreated. An excerpt:
ATF3 is a transcriptional repressor that regulates both the extent and duration of pro-inflammatory gene expression.[17] Specifically, ATF3 has been implicated in the transcriptional repression of chemokines including chemokine (C–C motif) ligand 4 (CCL4),[18] also known as macrophage inflammatory protein (MIP-1β), which promotes recruitment of additional immune cells to inflamed tissues. In the context of cancer, ATF3 activity counters antitumor immunity and promotes tumor growth. We therefore explored the effect of the ATF3W-aeg antagonist peptide on CCL4 expression in M2 anti-inflammatory macrophages differentiated from the human THP-1 monocytic cell line. […]
Figure 10 ATF3W-aeg peptide stimulates expression of pro-inflammatory cytokine in M2 macrophages. CCL4 protein levels were measured by ELISA from supernatants of M2 macrophage cultures treated with either 20 μM ATF3W-aeg or negative control peptide (****p < 0.0001). […]
THP-1 cells were seeded in 12-well format at a concentration of 5 × 10^5 cells/well and treated with 7.5 ng/mL Phorbol 12-Myristate 13-Acetate (PMA, Sigma-Aldrich) in RPMI media supplemented with 10% FBS and 55 μM β-mercaptoethanol (BME). […] After 48 h, supernatants were collected and clarified by centrifugation, and the CCL-4 concentration was assessed by ELISA (MIP-1b Human Instant ELISA Kit, ThermoFisher Scientific) according to the manufacturer’s protocol.
For orientation: In an ELISA, binding on a coated surface is turned into a signal by an enzyme label.

In assay [2] the target is T1, ATF3 (Homo sapiens, UniProt P18847).
T1 construct: We focus on the selective targeting of the ATF3 leucine zipper dimerization domain using intracellular peptide library screening; made in house; host or cells: chemical solid-phase peptide synthesis (no expression host)
T1 sequence (P18847 110-143): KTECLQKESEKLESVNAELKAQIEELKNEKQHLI
The assay can be described thus: CD thermal denaturation of peptide mixed 1:1 with ATF3. It counts as binding. Conditions: peptide incubated with ATF3; CD signal at 222 nm, 1 °C increments; 150 μM total peptide; 10 mM potassium phosphate, 100 mM potassium fluoride, pH 7.0; two-state denaturation model. From the text: Following the observed significant increase in global secondary structure content for the ATF3-ATF3W_aeg complex relative to component peptides (Figure 6), we next analyzed the stability of the complex by undertaking thermal denaturation experiments (Figure 7). […] Moreover, consistent with spectral data, the clear increase from the average profile of the component peptides relative to that of the measured is most pronounced in the combined construct (Figure 7, red hash vs black). This provides robust additional evidence for a preferential interaction between ATF3 and ATF3W_aeg that is improved over either the core a or electrostatic e/g constructs.
Shown are thermal stabilities of peptide pairs measured via temperature dependence of the CD signal at 222 nm. The thermal denaturation profiles for (a) ATF3-ATF3W_a, (b) ATF3-ATF3W_eg, and (c) ATF3-ATF3W_aeg show a substantial increase in the transition midpoint (Tm = 59 °C) relative to component peptides (black vs red hash). Experiments were performed in 10 mM potassium phosphate and 100 mM potassium fluoride (pH 7.0). All spectra were recorded at 1 °C increments at a total peptide concentration of 150 μM and fitted to a two-state denaturation model.
Thermal denaturation experiments were performed at 150 μM total protein concentration in 10 mM potassium phosphate and 100 mM potassium fluoride, pH 7, using an Applied Photophysics Chirascan CD instrument (Leatherhead, UK) as previously described.[23]

Assay [3] concerns the target T2, ATF3W_aeg (synthetic construct).
T2 chain: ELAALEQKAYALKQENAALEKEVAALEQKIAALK
The assay can be described thus: ITC. In general terms: In ITC the heat of successive injections is recorded.

Turning to “Ac-KAAALKQKAYALKQQIAALKKQVAALKQKIAALKPKKKRKVYGRKKRRQRRR-NH2 [Fra1W-NLS TAT, reference compound]”, in assay [1], the “effect on CCL4 expression (protein in supernatant, ELISA)” value is listed as “no effect”. Take “EAAALEQKIYALKQEAAALEKEIAALEQKAAALK [ATF3W_eg]”: in assay [2], the “transition midpoint (Tm) of heterodimer with ATF3” value was 52 °C. Consider “QLAALQQQAYALQQQNAALQKQVAALQQQIAALQ [ATF3W_a]”, for which the “transition midpoint (Tm) of heterodimer with ATF3” value in assay [2] turned out to be 26 °C.

Broadly, the Kd is the constant that tells how readily two partners part at equilibrium. The low end stands for tighter binding, the high end for weaker binding. In assay [3], TECLQKESEKLESVNAELKAQIEELKNEKQHLIYM [ATF3 leucine zipper] displayed a Kd of 151 nM.
